Reference: patent US12637469B2, “1H-pyrazole derivative and application thereof as dual target inhibitor of Syk and VEGFR2” (Ocumension Therapeutics (Suzhou) Co., Ltd., priority 2020, dated 2026)

Columns and labels:
CYP2D6 = target: T1, CYP2D6 (Homo sapiens, UniProt P10635); test: Inhibition of cytochrome P450 enzymes in human liver microsomes (LC-MS/MS); assay type: in vitro ADME
T1 construct: human liver microsome working solution was prepared; from tissue; host or cells: human liver microsomes
T1 sequence (P10635 whole entry): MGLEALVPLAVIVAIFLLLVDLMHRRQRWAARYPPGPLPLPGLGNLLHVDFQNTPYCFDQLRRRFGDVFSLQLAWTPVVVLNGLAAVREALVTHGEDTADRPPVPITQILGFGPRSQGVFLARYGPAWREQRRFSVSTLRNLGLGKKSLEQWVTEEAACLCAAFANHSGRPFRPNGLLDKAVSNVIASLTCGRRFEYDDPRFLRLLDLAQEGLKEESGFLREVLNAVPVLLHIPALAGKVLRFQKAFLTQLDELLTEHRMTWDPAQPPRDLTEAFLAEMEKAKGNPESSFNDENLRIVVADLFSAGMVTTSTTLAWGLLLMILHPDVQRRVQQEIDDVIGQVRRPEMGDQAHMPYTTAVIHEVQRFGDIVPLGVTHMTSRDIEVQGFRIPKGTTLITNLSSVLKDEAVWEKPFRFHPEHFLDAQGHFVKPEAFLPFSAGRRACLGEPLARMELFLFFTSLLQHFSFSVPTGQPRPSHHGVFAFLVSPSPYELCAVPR
Method: (§1) In order to investigate the activity of the compound on human liver microsomal CYP450 enzyme, Liquid Chromatography-Mass Spectrometry/Mass Spectrometry (LC-MS/MS) method was used in this study to determine the inhibitory effect of compound 1 on five main subtypes (CYP1A2, 2C9, 2C19, 2D6, 3A4) of human hepatocyte CYP450 enzyme, and compound screening and analysis were conducted using IC50 value as the indicator.
(§2) • 1) A test compound and a standard inhibitor working solution (100×) were prepared; • 2) microsomes were taken out of a −80° C. freezer, thawed on ice, labeled with the date, and put back in the freezer immediately after use; • 3) 20 microliters of matrix solution was added to the corresponding wells; • 4) 20 microliters of phosphate buffered saline was added to the blank wells; • 5) 2 microliters of the test compound and positive control working solution were added to the corresponding wells; • 6) 2 microliters of solvent was added to each of the inhibitor-free wells and the blank wells; • 7) human liver microsome working solution was prepared; • 8) 158 microliters of HLM working solution was added to all wells of the incubation plate; • 9) the plate was heated in a 37° C. water bath for about 10 minutes; • 10) NADPH cofactor solution was prepared; • 11) 20 microliters of NADPH cofactor was added to all of the incubation wells; • 12) all CYPs were subjected to mixed culture in a 37° C. water bath for 10 minutes; • 13) at a certain point in time, the reaction was stopped by adding 400 microliters of cold solution (200 ng/mL of tolbutamide in acetonitrile and 200 ng/mL of Labetalol in acetonitrile); • 14) the samples were centrifuged at 4000 rpm for 20 minutes to precipitate proteins; • 15) 200 microliters of supernatant was transferred into 100 microliters of high performance liquid chromatography water, and shaked for 10 minutes; • 16) LC/MS/MS analysis was started.

CYP3A4 = target: T2, CYP3A4 (Homo sapiens, UniProt P08684); test: as above; assay type: in vitro ADME
T2 construct: human liver microsome working solution was prepared; from tissue; host or cells: human liver microsomes
T2 sequence (P08684 whole entry): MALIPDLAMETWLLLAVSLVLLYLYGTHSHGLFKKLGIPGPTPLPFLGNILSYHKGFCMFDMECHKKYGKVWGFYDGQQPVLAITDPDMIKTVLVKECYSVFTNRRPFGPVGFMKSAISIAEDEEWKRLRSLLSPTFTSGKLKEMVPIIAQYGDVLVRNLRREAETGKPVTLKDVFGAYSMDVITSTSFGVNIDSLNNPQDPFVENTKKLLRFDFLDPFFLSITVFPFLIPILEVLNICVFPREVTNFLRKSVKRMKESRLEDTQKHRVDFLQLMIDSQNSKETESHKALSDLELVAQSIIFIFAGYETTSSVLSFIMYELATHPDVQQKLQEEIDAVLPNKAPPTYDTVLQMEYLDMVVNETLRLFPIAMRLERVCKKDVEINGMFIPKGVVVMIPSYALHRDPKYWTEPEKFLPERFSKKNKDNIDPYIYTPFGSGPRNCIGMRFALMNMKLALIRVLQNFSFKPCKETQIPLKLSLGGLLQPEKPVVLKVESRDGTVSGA
Method: as §1, §2

Structure (SMILES): c1cn2c(n1)c(Nc1ccc(N3CCOCC3)cc1)nc1ccc(-c3cn[nH]c3)cc12 [Compound 1]
- IC50 (CYP2D6): > 50 µM
- IC50 (CYP3A4): > 50 nM
